System: E. coli O157:H7
Test: 12 day shelf-life study of inoculated spinach rinsed with LAB, chlorine or multi-hurdle intervention at 7° C.
Set-up: species or system Escherichia coli O157:H7
Details: 12 day shelf-life at 7° C., in words, P<0.0001

OCl [chlorine, sodium hypochlorite]
Reductions in pathogen populations compared to control populations: Significant reductions
